The record followed here is PMC5577610, “Nine New Triterpene Glycosides, Magnumosides A1–A4, B1, B2, C1, C2 and C4, from the Vietnamese Sea Cucumber Neothyonidium (=Massinium) magnum: Structures and Activities against Tumor Cells Independently and in Synergy with Radioactive Irradiation” (Marine Drugs, 2017).

Structures can show the parent of a compound that is named as a salt.

Holding throughout (assay type): cell-based
In data set [1] the test system is mouse erythrocytes. The settings on record: for Hemolytic action (in words): mouse erythrocytes. The protocol:
The erythrocytes were washed thrice with 0.9% NaCl, centrifuged (450 g) on a centrifuge […] (Heraeus, Hanau, Germany) for 5 min followed by re-suspending in phosphate-buffered saline (PBS), pH 7.2-7.4. […] ED50 was calculated using SigmaPlot 3.02 software (Jandel Scientific, San Rafael, CA, USA). […] The erythrocyte suspension in phosphate-buffered saline, pH 7.2-7.4 (PBS) with 20 μL of the solvent without a tested compound was used as negative control.

A short description of data set [2]: Cytotoxic activity (MTT) against mouse spleenocytes. The conditions noted are these: CD-1, mouse. The protocol:
(§1) The spleenocytes from CD-1 line mice were used. The spleen was isolated from mice and homogenized. The spleenocytes were washed thrice and resuspended with RPMI-1640 medium contained gentamicine 8 μg/mL (Biolot, Saint Petersburg, Russia). The museum tetraploid strain of murine ascites Ehrlich carcinoma cells from the All-Russian cancer center RAMS (Moscow, Russia) was used. The cells of the ascites Ehrlich carcinoma were separated from ascites, which were collected on day 7 after inoculation in mouse CD-1 line. The cells were washed of ascites thrice and then resuspended in liquid media DMEM with L-Glutamine (Biolot, Saint Petersburg, Russia).
(§2) The solutions of tested substances in different concentrations (20 µL) and cell suspension (200 µL) were added in wells of 96-well plate and incubated over night at 37 °C and 5% CO2. After incubation the cells were sedimented by centrifugation, 200 µL of medium from each well were collected and 100 µL of pure medium were added. Then 10 µL of MTT solution […] (Sigma, St. Louis, MO, USA) were added in each well. Plate was incubated 4 h, after that 100 µL SDS-HCl were added to each well and plate was incubated at 37 °C 4–18 h. Optical density was measured at 570 nm and 630–690 nm. The activity of the substances was calculated as the ratio of the dead cells to general cells amount (ED50). Typicoside A1 [28] and cucumarioside A2-2 [11] were used as positive controls.

Data set [3] deals with human colorectal adenocarcinoma DLD-1 cells. Briefly: Cytotoxicity against DLD-1 cells (MTS assay). The conditions noted are these: for IC50: Homo sapiens, DLD-1, read-out: IC50 (50% reduction in cell viability), DLD-1 cells, 24 h, 0–100 µM. The protocol:
(§3) Human colorectal adenocarcinoma cells DLD-1 were cultured in RPMI-1640 medium. Culture media was supplemented with 10% fetal bovine serum (FBS) and penicillin—streptomycin solution. Cells were maintained in a sterile environment and kept in an incubator at 5% CO2 and 37 °C to promote growth. DLD-1 cells were sub-cultured every 3–4 days by their rinsing with phosphate buffered saline (PBS), adding trypsin to detach the cells from the tissue culture flask, and transferring 10–20% of the harvested cells to a new flask containing fresh growth media.
DLD-1 cells (1.0 × 10^4/well) were seeded in 96-well plates for 24 h at 37 °C in 5% CO2 incubator. The cells were treated with the compounds 1–9 at concentrations range from 0 to 100 µM for additional 24 h. Subsequently, cells were incubated with 15 µL MTS reagent for 3 h, and the absorbance of each well was measured at 490/630 nm using microplate reader “Power Wave XS” (Bio Tek, Winooski, VT, USA). All the experiments were repeated three times, and the mean absorbance values were calculated. The results are expressed as the percentage of inhibition that produced a reduction in absorbance by compound’s treatment compared to the non-treated cells (control).
For orientation: Formazan colour is commonly taken as a measure of viable cells.

A short description of data set [4]: Cytotoxic activity (MTT) against the ascites form of mouse Ehrlich carcinoma cells. The settings on record: mouse. Here is the method:
as §1, §2

Data set [5] relates to human colorectal adenocarcinoma DLD-1 cells. The data set can be described thus: Soft agar assay, colony formation of DLD-1 cells. The conditions noted are these: 14 days; for Reduction of colonies size: 10 µM; for inhibition at 10 µM: Homo sapiens, DLD-1, 336 h, read-out: Inhibition of spontaneous colony formation (number of colonies). Here is the method: as §3
DLD-1 cells (8.0 × 10^3) were seeded in 6-well plate and treated with the 3, 7–9 (10 µM) in 1 mL of 0.3% Basal Medium Eagle (BME) agar containing 10% FBS, 2 mM L-glutamine, and 25 µg/mL gentamicin. The cultures were maintained at 37 °C in a 5% CO2 incubator for 14 days, and the cell’s colonies were scored using a microscope “Motic AE 20” (Scientific Instrument Company, Campbell, CA, USA) and the Motic Image Plus computer program (Scientific Instrument Company, Campbell, CA, USA).

For data set [6] the test system is unchanged. Briefly: Radioactive irradiation plus compounds, DLD-1 cell proliferation (MTS). The settings on record: compounds 2 µM, radiation 4 Gy, 96 h, MTS assay, read-out: Increase of the inhibitory effect from radiation on proliferation. The protocol: Figure 7 The effect of radioactive irradiation and a combination of radioactive irradiation and the compounds 3, 7–9 on DLD-1 cancer cell proliferation. DLD-1 cells (8.0 × 10^3) were treated with radiation 4 Gy and the compounds 3, 7–9 (2 µM) for 96 h. Cell viability was estimated using the MTS assay. Data are represented as the mean ± SD as determined from triplicate experiments. A Student’s t-test was used to evaluate the data with the following significance levels: * p < 0.05, ** p < 0.01.
DLD-1 cells (8 × 10^3) cells were seeded in 96-well plates in […] of RPMI-1640/10%FBS medium at 37 °C in a 5% CO2 incubator for 24 h. Then the cells were treated with 2 µM of 3, 7–9 for additional 24, 48, 72 or 96 h at 37 °C in a 5% CO2 atmosphere. The reaction was terminated by adding MTS reagent to each well as described in the Section 3.5.5.
Irradiation was delivered at room temperature using single doses of X-ray system XPERT 80 (KUB Technologies, Inc, Milford, CT, USA). The doses were from 4 to 8 Gy for colony formation assay. The absorber dose was measured using X-ray radiation clinical dosimeter DRK-1 (Akselbant, Moscow, Russia).
DLD-1 cells (5.0 × 10^5) were plated at 60 mm dishes and incubated for 24 h. After the incubation, the cells were cultured in the presence or absence of 2 μM 3, 7–9 for additional 24 h before irradiation at the dose of 4 Gy. Immediately after irradiation, cells were returned to the incubator for recovery. Three hour later, the cells were harvested and used for soft agar assay or proliferation assay to establish the synergism of radioactive irradiation and investigated compounds effects on colony formation or proliferation of tested cells.

For Triton X-100 [reference compound], in data set [1] (concentration 1%, positive control), the Hemolysis of cells came out at 100%.
By IC50 is commonly meant the concentration at which inhibition is half-maximal. For the compound `C=C(C)C(O)CCC(C)(O)C1C2CC3(C)C4=CCC5C(C)(C)C(OC6OCC(OS(=O)(=O)O)C(O)C6OC6OC(C)C(O)C(O)C6O)CCC5(C)C4CCC13C(=O)O2` [Compound 2, 3β-O-[β-D-quinovopyranosyl-(1→2)-4-O-sodium sulfate-β-D-xylopyranosyl]-9βH,20(S),24(S)-dihydroxylanosta-7,25-diene-18(16)-lactone], the concentration for half-maximal inhibition (IC50) in data set [2] is 94.2 ± 1.18 µM; in data set [3] it was > 100 µM; in data set [4] it was > 100 µM. In data set [3] (0–100 µM, 24 h), the “Cytotoxic effect against DLD-1 cells (in words)” value was “did not possessed cytotoxic effect”. For the same compound, in data set [1], the “Hemolytic action (in words)” value is recorded as “moderate hemolytic activity”.
In the case of `C=C(C)C(O)CCC(C)(O)C1C2CC3(C)C4=CCC5C(C)(C)C(OC6OCC(OS(=O)(=O)O)C(O)C6OC6OC(C)C(OC7OCC(OC8OC(CO)C(O)C(OC)C8O)C(O)C7O)C(O)C6O)CCC5(C)C4CCC13C(=O)O2` [Compound 6, 3β-O-[3-O-methyl-β-D-glucopyranosyl-(1→3)-β-D-xylopyranosyl-(1→4)-β-D-quinovopyranosyl-(1→2)-4-O-sodium sulfate-β-D-xylopyranosyl]-9βH,20(S),24(S)-dihydroxylanosta-7,25-diene-18(16)-lactone], the IC50 in data set [2], in data set [3] and in data set [4] was > 100 µM throughout. In addition, the “Hemolytic action (in words)” value in data set [1] is “moderate hemolytic activity”.
As for `COC1C(O)C(COS(=O)(=O)O)OC(OC2COC(OC3C(C)OC(OC4C(OC5CCC6(C)C7CCC89C(=O)OC(CC8(C)C7=CCC6C5(C)C)C9C(C)(O)CCC=C(C)C)OCC(OS(=O)(=O)O)C4O)C(O)C3O)C(O)C2O)C1O` [Compound 9, 3β-O-[6-O-sodium sulfate-3-O-methyl-β-D-glucopyranosyl-(1→3)-β-D-xylopyranosyl-(1→4)-β-D-quinovopyranosyl-(1→2)-4-O-sodium sulfate-β-D-xylopyranosyl]-9βH,20(S)-hydroxylanosta-7,24-diene-18(16)-lactone], the “Reduction of colonies size” value in data set [5] is reported as “less than 20%”. In addition, in data set [5], the inhibition at 10 µM was < 20%. The inhibition at 2 µM in data set [6] was determined as 45%. The IC50 in data set [2] came out at 12.2 ± 0.33 µM; in data set [3], 33.9 µM; in data set [4], 35.06 ± 0.18 µM.
Regarding `CC(C)=CCCC(C)(O)C1C2CC3(C)C4=CCC5C(C)(C)C(OC6OCC(OS(=O)(=O)O)C(O)C6OC6OC(C)C(O)C(O)C6O)CCC5(C)C4CCC13C(=O)O2` [Compound 4, 3β-O-[β-D-quinovopyranosyl-(1→2)-4-O-sodium sulfate-β-D-xylopyranosyl]-9βH,20(S)-hydroxylanosta-7,24-diene-18(16)-lactone], the results for the IC50 in data set [2], in data set [3] and in data set [4] were 37.6 µM, > 100 µM and 28.4 ± 0.42 µM, respectively.
In the case of `COC1C(O)C(CO)OC(OC2COC(OC3C(C)OC(OC4C(OC5CCC6(C)C7CCC89C(=O)OC(CC8(C)C7=CCC6C5(C)C)C9C(C)(O)CC=CC(C)(C)O)OCC(OS(=O)(=O)O)C4O)C(O)C3O)C(O)C2O)C1O` [Compound 5, 3β-O-[3-O-methyl-β-D-glucopyranosyl-(1→3)-β-D-xylopyranosyl-(1→4)-β-D-quinovopyranosyl-(1→2)-4-O-sodium sulfate-β-D-xylopyranosyl]-9βH,20(S),25-dihydroxylanosta-7,23E-diene-18(16)-lactone], the IC50 in data set [2], in data set [3] and in data set [4] was > 100 µM throughout. Further, in data set [1], the “Hemolytic action (in words)” value is reported as “moderate hemolytic activity”.
On to `C=C(C)CCCC(C)(O)C1C2CC3(C)C4=CCC5C(C)(C)C(OC6OCC(OS(=O)(=O)O)C(O)C6OC6OC(C)C(O)C(O)C6O)CCC5(C)C4CCC13C(=O)O2` [Compound 3, 3β-O-[β-D-quinovopyranosyl-(1→2)-4-O-sodium sulfate-β-D-xylopyranosyl]-9βH,20(S)-hydroxylanosta-7,25-diene-18(16)-lactone], for which, in data set [5], the “Reduction of colonies size” value is listed as 49%. Besides, the inhibition at 10 µM in data set [5] was determined as 22%. Besides, the inhibition at 2 µM in data set [6] is > 30%. Moreover, the IC50 in data set [2] was 19.2 ± 0.03 µM; in data set [3], 30.3 µM; in data set [4], 18.95 ± 0.03 µM.
`C=C(C)C(O)CCC(C)(O)C1C2CC3(C)C4=CCC5C(C)(C)C(OC6OCC(OS(=O)(=O)O)C(O)C6OC6OC(C)C(OC7OCC(OC8OC(COS(=O)(=O)O)C(O)C(OC)C8O)C(O)C7O)C(O)C6O)CCC5(C)C4CCC13C(=O)O2` [Compound 8, 3β-O-[6-O-sodium sulfate-3-O-methyl-β-D-glucopyranosyl-(1→3)-β-D-xylopyranosyl-(1→4)-β-D-quinovopyranosyl-(1→2)-4-O-sodium sulfate-β-D-xylopyranosyl]-9βH,20(S),24(S)-dihydroxylanosta-7,25-diene-18(16)-lactone]: the “Reduction of colonies size” value in data set [5] is “less than 20%”. Besides, the inhibition at 10 µM in data set [5] is < 20%. The inhibition at 2 µM in data set [6] was > 30%. Further, the IC50 in data set [2] stood at 17.3 ± 0.43 µM; in data set [3] it was 37.1 µM; in data set [4], 37.5 µM. Besides, the “Hemolytic action (in words)” value in data set [1] is reported as “significant effects”.
`COC1C(O)C(COS(=O)(=O)O)OC(OC2COC(OC3C(C)OC(OC4C(OC5CCC6(C)C7CCC89C(=O)OC(CC8(C)C7=CCC6C5(C)C)C9C(C)(O)CC=CC(C)(C)O)OCC(OS(=O)(=O)O)C4O)C(O)C3O)C(O)C2O)C1O` [Compound 7, 3β-O-[6-O-sodium sulfate-3-O-methyl-β-D-glucopyranosyl-(1→3)-β-D-xylopyranosyl-(1→4)-β-D-quinovopyranosyl-(1→2)-4-O-sodium sulfate-β-D-xylopyranosyl]-9βH,20(S),25-dihydroxylanosta-7,23E-diene-18(16)-lactone]: the “Reduction of colonies size” value in data set [5] was 43%. Besides, the inhibition at 10 µM in data set [5] turned out to be 26%. Moreover, the IC50 came out at 8.97 ± 0.04 µM in data set [2], 32.9 µM in data set [3] and 18.7 µM in data set [4]. Besides, in data set [1], the “Hemolytic action (in words)” value is given as “significant effects”.
